These are literature values, as cited in patent US8268905B1, “Compositions containing poly(lactic acid), bacteriocin(s), plasticizers(s), and optionally pore forming agent(s), and methods or making” (The United States of America, as represented by the …, priority 2008, dated 2012).

The conditions of the data set: background statement.

Regarding nisin, the “maximal temperature at which nisin can retain its bioactivity” value was 120 °C.
